Patent publication US20100267561A1, “HERBICIDAL PYRIDAZINONE DERIVATIVES” (priority 2007, published 2010)
Where two headings read alike, the source gives them in different places.

Experiments:
Assay in all cases: Test B pre-/postemergence plant response
Type in all cases: in vivo
[1] = tested on: Russian thistle (Salsola iberica); details: Preemergence
Outline: (§1)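 Preemergence and postemergence (plants 2-18 cm, 1- to 4-leaf stage) applications used test chemicals in a non-phytotoxic solvent with surfactant. Plants were held in a greenhouse 13 to 15 days, then rated visually against controls on a 0-100 scale (0 no effect, 100 complete control).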

[2] = tested on: cocklebur (Xanthium strumarium)
Outline: as §1

[3] = tested on: large crabgrass (Digitaria sanguinalis)
Outline: as §1

[4] = 31 g ai/ha, scale 0 to 100 (0 no effect, 100 complete control)
[5] = Preemergence, 16 g ai/ha, scale 0 to 100 (0 no effect, 100 complete control)
[6] = Preemergence, 31 g ai/ha, 0 to 100 scale, 0 no effect, 100 complete control
[7] = Preemergence, 62 g ai/ha, scale 0 to 100
[8] = Preemergence, 8 g ai/ha, scale 0 to 100
[9] = 62 g ai/ha, 0 to 100 scale, 0 no effect, 100 complete control
[10] = 8 g ai/ha, postemergence, 0-100 scale
[11] = Postemergence, 16 g ai/ha, scale 0 to 100
[12] = Postemergence, 31 g ai/ha, scale 0 to 100
[13] = Postemergence, 62 g ai/ha, scale 0 to 100, 0 no effect, 100 complete control
[14] = Preemergence, 31 g ai/ha, scale 0 to 100 (0 no effect, 100 complete control)
[15] = Preemergence, 62 g ai/ha, 0 to 100 scale, 0 no effect, 100 complete control
[16] = Preemergence, 16 g ai/ha, scale 0 to 100
[17] = 8 g ai/ha, scale 0 to 100 (0 no effect, 100 complete control)
[18] = Preemergence, 8 g ai/ha, scale 0 to 100 (0 no effect, 100 complete control)
[19] = 16 g ai/ha, postemergence, 0-100 scale

Compound	Plant response rating, Russian Thistle [1, 4]	Russian Thistle plant response rating ([1]; 8 g ai/ha, scale 0 to 100)	Plant response rating, Cocklebur [2, 5]	Cocklebur plant response rating [2, 8]	Crabgrass, Large plant response rating [3, 8]	Plant response rating, Russian Thistle [1, 9]	Russian Thistle plant response rating ([1]; 16 g ai/ha, scale 0 to 100)	Cocklebur plant response rating [2, 10]	Plant response rating, Cocklebur [2, 11]	Plant response rating, Cocklebur [2, 12]	Plant response rating, Cocklebur [2, 13]	Plant response rating, Cocklebur [2, 14]	Plant response rating, Cocklebur [2, 15]	Crabgrass, Large plant response rating [3, 10]	Plant response rating, Crabgrass, Large [3, 11]	Plant response rating, Crabgrass, Large [3, 12]	Plant response rating, Crabgrass, Large [3, 13]	Plant response rating, Crabgrass, Large [3, 14]	Plant response rating, Crabgrass, Large [3, 15]	Crabgrass, Large plant response rating [3, 16]	further results
Cc1cc(-c2ccc(Cl)cc2)nn1-c1c(OS(=O)(=O)C(C)C)cnn(C)c1=O [Compound 50]	0	0	0	0	60	–	–	–	–	–	–	–	–	–	–	–	–	–	–	–	Plant response rating, Russian Thistle ([1]; 16 g ai/ha, scale 0 to 100 (0 no effect, 100 complete control)): 0; Plant response rating, Russian Thistle ([1]; 62 g ai/ha, scale 0 to 100): 0; Plant response rating, Cocklebur [2, 6]: 0; Plant response rating, Cocklebur [2, 7]: 0; Plant response rating, Crabgrass, Large [3, 5]: 98; Plant response rating, Crabgrass, Large [3, 6]: 100; Plant response rating, Crabgrass, Large [3, 7]: 100
CCCC(=O)Oc1cnn(C)c(=O)c1-n1nc(-c2ccc(Cl)cc2)cc1C [Compound 56]	0	0	0	0	0	0	0	0	0	0	0	0	0	65	85	95	100	100	100	60	–
CCc1cc(-c2ccc(C(F)(F)F)cc2)nn1-c1c(O)c(OC)nn(C)c1=O [Compound 66]	0	0	0	0	0	0	0	0	0	0	0	0	0	70	85	98	100	60	80	0	–
CCCc1cc(-c2ccc(C(F)(F)F)cc2)nn1-c1c(O)cnn(C)c1=O [Compound 72]	0	0	0	0	30	0	0	0	0	0	0	0	0	95	100	100	100	80	100	50	–
CCc1cc(-c2ccc(Br)cc2)nn1-c1c(O)c(C)nn(C)c1=O [Compound 74]	0	0	0	0	65	0	0	0	0	0	0	0	0	80	90	98	100	100	100	95	–
CCCc1cc(-c2ccc(Cl)cc2)nn1-c1c(O)cnn(C)c1=O [Compound 76]	0	0	–	0	0	0	0	0	0	0	0	0	0	20	85	95	100	55	98	20	Cocklebur plant response rating [2, 16]: 0
Cc1nn(C)c(=O)c(-c2nc(-c3ccc(Cl)cc3)sc2C)c1O [Compound 79, 4-[2-(4-chlorophenyl)-5-methyl-4-thiazolyl]-5-hydroxy-2,6-dimethyl-3(2H)-pyridazinone]	0	–	–	–	–	0	0	0	–	–	–	–	–	75	–	–	–	–	–	100	Russian Thistle plant response rating [1, 17]: 0; Cocklebur plant response rating [2, 18]: 0; Cocklebur plant response rating [2, 16]: 0; pest or weed control at 16 g/ha ([2]; Xanthium strumarium, post-emergence, Postemergence, 16 g ai/ha, scale 0 to 100, read-out: Plant response rating, Cocklebur): 0%; pest or weed control at 31 g/ha ([2]; Xanthium strumarium, post-emergence, Postemergence, 31 g ai/ha, scale 0 to 100, read-out: Plant response rating, Cocklebur): 0%; pest or weed control at 62 g/ha ([2]; Xanthium strumarium, post-emergence, Postemergence, 62 g ai/ha, scale 0 to 100, 0 no effect, 100 complete control, read-out: Plant response rating, Cocklebur): 0%; pest or weed control at 31 g/ha ([2]; Xanthium strumarium, pre-emergence, Preemergence, 31 g ai/ha, scale 0 to 100 (0 no effect, 100 complete control), read-out: Plant response rating, Cocklebur): 0%; pest or weed control at 62 g/ha ([2]; Xanthium strumarium, pre-emergence, Preemergence, 62 g ai/ha, 0 to 100 scale, 0 no effect, 100 complete control, read-out: Plant response rating, Cocklebur): 0%; pest or weed control at 16 g/ha ([3]; Digitaria sanguinalis, post-emergence, Postemergence, 16 g ai/ha, scale 0 to 100, read-out: Plant response rating, Crabgrass, Large): 80%; pest or weed control at 31 g/ha ([3]; Digitaria sanguinalis, post-emergence, Postemergence, 31 g ai/ha, scale 0 to 100, read-out: Plant response rating, Crabgrass, Large): 85%; pest or weed control at 62 g/ha ([3]; Digitaria sanguinalis, post-emergence, Postemergence, 62 g ai/ha, scale 0 to 100, 0 no effect, 100 complete control, read-out: Plant response rating, Crabgrass, Large): 98%; pest or weed control at 31 g/ha ([3]; Digitaria sanguinalis, pre-emergence, Preemergence, 31 g ai/ha, scale 0 to 100 (0 no effect, 100 complete control), read-out: Plant response rating, Crabgrass, Large): 100%; pest or weed control at 62 g/ha ([3]; Digitaria sanguinalis, pre-emergence, Preemergence, 62 g ai/ha, 0 to 100 scale, 0 no effect, 100 complete control, read-out: Plant response rating, Crabgrass, Large): 100%; Crabgrass, Large plant response rating [3, 18]: 20
COc1nn(C)c(=O)c(-n2nc(-c3ccc(Br)cc3)cc2C)c1O [Compound 82]	0	–	–	–	–	0	0	0	–	0	20	0	35	100	–	100	100	100	100	98	Russian Thistle plant response rating [1, 17]: 0; Cocklebur plant response rating [2, 19]: 0; Cocklebur plant response rating [2, 18]: 0; Cocklebur plant response rating [2, 16]: 0; Crabgrass, Large plant response rating [3, 19]: 100; Crabgrass, Large plant response rating [3, 18]: 95
